The results in this text go back to ChEMBL document CHEMBL1131368, “Synthesis of novel substituted pyridines as inhibitors of endothelin converting enzyme-1 (ECE-1)” (Bioorg Med Chem Lett, 1998).

The target of the experiment is T1, Endothelin-converting enzyme 1 (Homo sapiens, UniProt P42892).
T1 sequence (P42892 whole entry): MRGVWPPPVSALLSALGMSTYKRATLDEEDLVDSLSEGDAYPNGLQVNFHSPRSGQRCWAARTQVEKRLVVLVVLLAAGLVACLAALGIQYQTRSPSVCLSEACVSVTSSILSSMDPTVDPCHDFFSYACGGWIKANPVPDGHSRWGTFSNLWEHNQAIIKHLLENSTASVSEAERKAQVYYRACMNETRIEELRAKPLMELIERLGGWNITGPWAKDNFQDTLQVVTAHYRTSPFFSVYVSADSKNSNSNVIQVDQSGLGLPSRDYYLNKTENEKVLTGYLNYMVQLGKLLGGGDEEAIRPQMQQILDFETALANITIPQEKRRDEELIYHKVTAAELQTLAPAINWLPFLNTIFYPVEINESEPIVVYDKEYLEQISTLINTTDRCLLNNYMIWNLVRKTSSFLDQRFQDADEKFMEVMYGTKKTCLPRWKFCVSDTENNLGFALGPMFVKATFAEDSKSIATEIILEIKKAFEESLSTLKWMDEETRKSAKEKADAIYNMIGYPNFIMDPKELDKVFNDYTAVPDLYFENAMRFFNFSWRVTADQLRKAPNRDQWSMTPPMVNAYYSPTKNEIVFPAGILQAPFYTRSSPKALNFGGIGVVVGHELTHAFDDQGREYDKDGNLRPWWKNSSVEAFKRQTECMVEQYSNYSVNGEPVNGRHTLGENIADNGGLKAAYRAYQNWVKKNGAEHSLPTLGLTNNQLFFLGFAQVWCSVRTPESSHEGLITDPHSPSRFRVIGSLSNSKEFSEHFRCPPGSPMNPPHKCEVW
Kind of experiment: Inhibition of human recombinant Endothelin-converting enzyme 1.
Consider `COc1ccc(C(=O)O)nc1-c1csc(Cc2ccccc2)n1`, for which the IC50 (commonly the midpoint of a concentration-inhibition curve) was 860 nM.

Take `COc1cc(C(=O)O)nc(-c2ccoc2)c1OC`: the IC50 was greater than 50000 nM.

Consider `COc1ccc(C(=O)O)nc1-c1csc(CCc2ccccc2)n1`, for which the IC50 worked out at 980 nM.

As for `CNc1nc(-c2nc(C(=O)O)cc(OC)c2OC)cs1`, the IC50 turned out to be 2600 nM.

Take `COc1ccc(C(=O)O)nc1-c1nccs1`: the IC50 came to 24000 nM.

On to `COc1ccc(C(=O)O)nc1-c1csc(-c2ccc(-c3ccccc3)cc2)n1`, for which the IC50 came out at 10000 nM.

Regarding `COc1ccc(C(=O)O)nc1-c1c[nH]cn1`, the IC50 came out at 2400 nM.

In the case of `COc1cc(C(=O)O)nc(-c2csc(C)n2)c1OC`, the IC50 is 1400 nM.

In the case of `COc1cc(C(=O)O)nc(-c2ccsc2)c1OC`, the IC50 is greater than 50000 nM.

With `Cc1nc(-c2cccc(C(=O)O)n2)cs1`, the IC50 was 10000 nM.

Regarding `COc1cc(C(=O)O)nc(-c2cscn2)c1OC`, the IC50 is 4300 nM.

Consider `COc1ccc(C(=O)O)nc1-c1csc(-c2ccc3ccccc3c2)n1`, for which the IC50 was determined as 1500 nM.

In the case of `COc1cc(C(=O)O)nc(-c2cccn2C)c1OC`, the IC50 was greater than 50000 nM.

Consider `COc1ccc(C(=O)O)nc1-c1csc(C)n1`, for which the IC50 turned out to be 1400 nM.

On to `COc1ccc(C(=O)O)nc1-c1csc(-c2ccccc2)n1`, for which the IC50 was 1300 nM.
